The values below come from paper PMC9516332 (Frontiers in Oncology, 2022).

In test [1] the target is panel of 255 wild-type kinases (Homo sapiens, UniProt O95819). As to conditions: kinase HGK, 1 µmol/L single concentration, cited from earlier work.
Test [2] concerns the target panel of 255 wild-type kinases (Homo sapiens, UniProt O96013). As to conditions: PAK4, 1 µmol/L single concentration, cited from earlier work.
The target in test [3] is panel of 255 wild-type kinases (Homo sapiens, UniProt P06213). The settings on record: kinase INSR, 1 µmol/L single concentration, cited from earlier work.
For test [4], the target named is panel of 255 wild-type kinases (Homo sapiens, UniProt P11802). The settings on record: CDK4/CycD3 kinase assay, 1 µmol/L single concentration, cited from earlier work.
Test [5] concerns the target panel of 255 wild-type kinases (Homo sapiens, UniProt P22612). The settings on record: kinase PKACγ; 1 µmol/L single concentration; ref DOI: 10.1158/1535-7163.MCT-18-0877; cited from earlier work.
Test [6] addresses panel of 255 wild-type kinases (Homo sapiens, UniProt P24723). The settings on record: cited from earlier work.
Test [7] concerns the target panel of 255 wild-type kinases (Homo sapiens, UniProt P27448). As to conditions: MARK3, 1 µmol/L single concentration, cited from earlier work.
The target of test [8] is panel of 255 wild-type kinases (Homo sapiens, UniProt P31749). The settings on record: AKT1 kinase assay; 1 µmol/L single concentration; ref DOI: 10.1158/1535-7163.MCT-18-0877; cited from earlier work.
Test [9] has as its target T1, panel of 255 wild-type kinases (Homo sapiens, UniProt Q96KB5).
T1 sequence (Q96KB5 1-322): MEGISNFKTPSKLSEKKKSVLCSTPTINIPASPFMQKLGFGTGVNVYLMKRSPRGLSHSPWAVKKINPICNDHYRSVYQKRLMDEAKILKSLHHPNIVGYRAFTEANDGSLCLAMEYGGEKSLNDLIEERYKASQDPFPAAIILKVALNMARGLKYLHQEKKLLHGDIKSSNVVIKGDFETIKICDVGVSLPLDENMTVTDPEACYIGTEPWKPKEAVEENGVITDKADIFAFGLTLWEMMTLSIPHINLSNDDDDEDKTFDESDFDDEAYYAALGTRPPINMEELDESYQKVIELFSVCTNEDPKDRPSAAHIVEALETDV
As to conditions: kinase PBK, 1 µmol/L single concentration, cited from earlier work.

The target in test [10] is panel of 255 wild-type kinases (Homo sapiens, UniProt Q9H2G2). As to conditions: kinase SLK, 1 µmol/L single concentration, cited from earlier work.
Test [11] has as its target panel of 255 wild-type kinases (Homo sapiens, UniProt Q9UBS0). As to conditions: p70S6Kβ, 1 µmol/L single concentration, cited from earlier work.
Test [12] concerns the target T2, panel of 255 wild-type kinases (Homo sapiens, UniProt Q9UHD2).
T2 sequence (Q9UHD2 1-729): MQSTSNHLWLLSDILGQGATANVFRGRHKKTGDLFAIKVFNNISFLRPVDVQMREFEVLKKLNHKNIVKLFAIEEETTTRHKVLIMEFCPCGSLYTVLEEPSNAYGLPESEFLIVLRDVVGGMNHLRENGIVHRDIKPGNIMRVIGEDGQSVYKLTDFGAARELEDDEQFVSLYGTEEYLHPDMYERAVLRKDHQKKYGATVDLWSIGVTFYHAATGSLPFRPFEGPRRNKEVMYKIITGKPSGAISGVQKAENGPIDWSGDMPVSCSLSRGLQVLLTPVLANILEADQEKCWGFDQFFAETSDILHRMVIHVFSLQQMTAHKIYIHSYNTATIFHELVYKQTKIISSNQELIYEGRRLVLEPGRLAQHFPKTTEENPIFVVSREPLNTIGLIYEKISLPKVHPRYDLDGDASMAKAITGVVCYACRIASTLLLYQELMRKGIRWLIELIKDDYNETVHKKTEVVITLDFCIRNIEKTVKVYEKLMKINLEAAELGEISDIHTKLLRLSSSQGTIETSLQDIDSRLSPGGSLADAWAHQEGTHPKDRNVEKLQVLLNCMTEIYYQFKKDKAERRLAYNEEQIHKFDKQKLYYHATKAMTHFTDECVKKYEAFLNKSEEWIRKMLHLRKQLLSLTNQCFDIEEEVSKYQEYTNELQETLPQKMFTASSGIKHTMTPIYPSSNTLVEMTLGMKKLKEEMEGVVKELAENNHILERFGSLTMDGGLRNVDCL
The settings on record: kinase TBK1, 1 µmol/L single concentration, cited from earlier work.

Test [13] has as its target panel of 255 wild-type kinases (Homo sapiens, UniProt Q9Y3S1). As to conditions: kinase WNK2, 1 µmol/L single concentration, cited from earlier work.
Test [14] concerns the target panel of 255 wild-type kinases (Homo sapiens, UniProt Q9Y6E0). The settings on record: MST3, 1 µmol/L single concentration, cited from earlier work.
Test [15] addresses panel of 255 wild-type kinases (Homo sapiens, UniProt Q92918). Description: Kinase panel profiling at 1 µmol/L (MSA or IMAP), percentage inhibition. The class given is biochemical. The settings on record: read-out: %-inhibition at 1 µmol/L, HPK1.
Test [16] deals with panel of 255 wild-type kinases (Homo sapiens, UniProt P11309). The settings on record: kinase PIM1; 1 µmol/L single concentration; ref DOI: 10.1158/1535-7163.MCT-18-0877; cited from earlier work.
The mark [17] stands for this setting: ref DOI: 10.1158/1535-7163.MCT-18-0877.
Where [18] appears, read: kinase HPK1, 1 µmol/L single concentration.
The mark [19] stands for this setting: ref DOI: 10.1371/journal.pone.0092146.

Read-outs that look alike come from different tables or passages of the source.

For the compound `C=CC(=O)N1CCC[C@@H](n2nc(-c3ccc(Oc4ccccc4)cc3)c3c(N)ncnc32)C1` [ibrutinib], in [1] (setting [17]), the “%-inhibition at 1 µmol/L, HGK” value was -0.0249%. The “%-inhibition, PAK4” value in test [2] (setting [17]) is 11%. Besides, in [3] (setting [17]), the “%-inhibition at 1 µmol/L, INSR” value is recorded as 9.51%. For the same compound, the “%-inhibition CDK4/CycD3” value in [4] (setting [17]) was 4%. In addition, the “%-inhibition at 1 µmol/L, PKACγ” value in [5] is 5%. For the same compound, in [6] (kinase PKCη, 1 µmol/L single concentration, ref DOI: 10.1158/1535-7163.MCT-18-0877), the “%-inhibition at 1 µmol/L, PKCη” value was 3.27%. Also, the “%-inhibition, MARK3” value in test [7] (setting [17]) was -6%. Besides, the “%-inhibition AKT1” value in [8] is on record as -9%. Moreover, the “%-inhibition at 1 µmol/L, PBK” value in test [9] (setting [17]) is -9%. The “%-inhibition at 1 µmol/L, SLK” value in test [10] (setting [17]) is 12%. In addition, the “%-inhibition, p70S6Kβ” value in [11] (setting [17]) is on record as 0.87%. The “%-inhibition at 1 µmol/L, TBK1” value in test [12] (setting [17]) was 0.825%. Moreover, the “%-inhibition at 1 µmol/L, WNK2” value in test [13] (setting [17]) was 5.67%. Moreover, in test [14] (setting [17]), the “%-inhibition, MST3” value is on record as 8%.

As to `Cn1cc(-c2cc3c(N4CCN(c5ncc([C@@](C)(N)c6ccc(F)cc6)cn5)CC4)ncnn3c2)cn1` [avapritinib], in test [15] (setting [18]), the inhibition at 1 µM was found to be 15%.

For the compound `CCN1CCN(c2ccc(Nc3cc(N(C)C(=O)Nc4c(Cl)c(OC)cc(OC)c4Cl)ncn3)cc2)CC1` [infigratinib], the inhibition at 1 µM in test [15] (setting [18]) stood at 65%.

As for `Cn1cnc2c(F)c(Nc3ccc(Br)cc3Cl)c(C(=O)NOCCO)cc21` [selumetinib], in test [15] (setting [18]), the inhibition at 1 µM was 9.49%.

On to `CNC(=O)c1ccc(-c2cnc3ncc(Cc4ccc5ncccc5c4)n3n2)cc1F` [capmatinib], for which the inhibition at 1 µM in test [15] was 0.392%.

`CC(C)(C)c1nc(-c2cccc(NS(=O)(=O)c3c(F)cccc3F)c2F)c(-c2ccnc(N)n2)s1` [dabrafenib]: the “%-inhibition at 1 µmol/L, HGK” value in test [1] (setting [19]) is on record as 7%. For the same compound, the “%-inhibition, PAK4” value in test [2] (setting [19]) was 11%. For the same compound, the “%-inhibition at 1 µmol/L, INSR” value in [3] (setting [19]) is 7.51%. For the same compound, the “%-inhibition CDK4/CycD3” value in test [4] (setting [19]) is 23%. The “%-inhibition at 1 µmol/L, PKCη” value in test [6] (kinase PKCη, 1 µmol/L single concentration, ref DOI: 10.1371/journal.pone.0092146) was 9%. In addition, the “%-inhibition, MARK3” value in [7] (setting [19]) is listed as 4%. In addition, the “%-inhibition at 1 µmol/L, PBK” value in [9] (setting [19]) is recorded as 12%. Moreover, the “%-inhibition at 1 µmol/L, SLK” value in test [10] (setting [19]) was 12%. Besides, the “%-inhibition, p70S6Kβ” value in [11] (setting [19]) is listed as -0.554%. The “%-inhibition at 1 µmol/L, TBK1” value in [12] (setting [19]) is -1.15%. The “%-inhibition at 1 µmol/L, WNK2” value in [13] (setting [19]) was 0.686%. In addition, in [14] (setting [19]), the “%-inhibition, MST3” value was 0.532%.

In the case of `Cc1cc(Nc2ncnc3ccc(NC4=NC(C)(C)CO4)cc23)ccc1Oc1ccn2ncnc2c1` [tucatinib], the inhibition at 1 µM in test [15] (setting [18]) was determined as 4%.

Turning to `C=CC(=O)N1CCC([C@@H]2CCNc3c(C(N)=O)c(-c4ccc(Oc5ccccc5)cc4)nn32)CC1` [zanubrutinib], in test [15] (setting [18]), the inhibition at 1 µM is 1.75%.

In the case of `CO[C@@H]1[C@H](N(C)C(=O)c2ccccc2)C[C@H]2O[C@]1(C)n1c3ccccc3c3c4c(c5c6ccccc6n2c5c31)C(=O)NC4` [midostaurin], in test [1] (setting [17]), the “%-inhibition at 1 µmol/L, HGK” value is recorded as 97%. In addition, in [2] (setting [17]), the “%-inhibition, PAK4” value is 30%. Moreover, the “%-inhibition at 1 µmol/L, INSR” value in test [3] (setting [17]) is 35%. In addition, in test [16], the “%-inhibition at 1 µmol/L, PIM1” value was 52%. Besides, the “%-inhibition CDK4/CycD3” value in [4] (setting [17]) is reported as -1.1%. The “%-inhibition at 1 µmol/L, PKACγ” value in test [5] is 81%. For the same compound, in test [6], the “%-inhibition at 1 µmol/L, PKCη” value is on record as 84%. In test [9] (setting [17]), the “%-inhibition at 1 µmol/L, PBK” value is given as -7%. Besides, the “%-inhibition at 1 µmol/L, SLK” value in test [10] (setting [17]) was 85%. Moreover, the “%-inhibition, p70S6Kβ” value in test [11] (setting [17]) is recorded as 69%. Further, the “%-inhibition at 1 µmol/L, TBK1” value in test [12] (setting [17]) is 98%. For the same compound, the “%-inhibition at 1 µmol/L, WNK2” value in test [13] (setting [17]) is given as 0.935%.

Turning to `COc1ccc(CN2C3CC2CN(c2ccc(-c4cc(OCC(C)(C)O)cn5ncc(C#N)c45)cn2)C3)cn1` [selpercatinib], in [15] (setting [18]), the inhibition at 1 µM amounted to 8.44%.

For `CCN1C(=O)N(c2c(F)c(OC)cc(OC)c2F)Cc2cnc3[nH]c(CN4CCOCC4)cc3c21` [pemigatinib], the inhibition at 1 µM in test [15] (setting [18]) is 21%.

On to `CO[C@]1(C(=O)N[C@@H](C)c2ccc(-n3cc(F)cn3)nc2)CC[C@H](c2nc(C)cc(Nc3cc(C)[nH]n3)n2)CC1` [pralsetinib], for which, in [15] (setting [18]), the inhibition at 1 µM turned out to be 50%.

For the compound `O=C(Nc1cnn2ccc(N3CCC[C@@H]3c3cc(F)ccc3F)nc12)N1CC[C@H](O)C1` [larotrectinib], the inhibition at 1 µM in test [15] (setting [18]) was determined as 1%.
